System: yeast genes (level of expressed mRNA)
Test: DNA chip analysis of expressed mRNA of yeast genes after 2 h culture with a toxic chemical substance
Assay type: cell-based, Saccharomyces cerevisiae S288C
Procedure: Yeast (Saccharomyces cerevtisiae S288C (α SUC2mal mel gap2 CUP1)) were cultured at 25° C. on YPD medium (yeast extract 1%, polypepton 2%, glucose 2%). One of toxic chemical substances was added to the cell at logarithmic growth phase, and the cell was further cultured for two hours. Cell was cultured without any chemical substance in the same condition, and was used as control. Concentrations of the chemical substances were defined to inhibit the growth of the yeast but not lead to death.
After the completion of cultivation, the culture was centrifuged to collect the cells. To the cells, sodium acetate buffer (50 mM sodium acetate, 10 mM EDTA, 1% SDS) was added, and the mixture was shaken at 65° C. for five minutes, followed by returning to room temperature, and obtaining the supernatant, which procedure was repeated two times. To the supernatant, ½ amount of a solution of phenol/chloroform was added, and the mixture was centrifuged to give a supernatant, which was added with an equal amount of chloroform, and the mixture was centrifuged to give a supernatant. To the supernatant, an equal amount of isopropanol containing 0.3 M sodium acetate was added, and the mixture was allowed to stand at room temperature for 30 minutes, after which the mixture was centrifuged to give a sediment of the whole RNAs. Seventy % ethanol was added to the sediment, and the mixture was again centrifuged to give a sediment, which was then dried and dissolved in water. mRNA was isolated from the whole RNAs as followings. In view of the fact that a poly A chain is attached to the 3′ terminus of mRNA, a polynucleotide having a poly T structure which was immobilized on the surface of latex beads was used to trap the mRNA, and then the mRNA was washed and eluted with spine column (Oligotex-dT30<Super>mRNA Purification Kit, Takara). Reverse transcription of the mRNA was conducted with a reverse transcriptase (Super Script II Reverse Transcriptase; catalogue No. 18064-014, GibcoBRL) using fluorescence-labeled nucleotides to give cDNAs that were introduced with Cy3-dUTP or Cy5-dUTP during the reverse transcription.
The labeled cDNAs were dissolved in TE buffer (10 mM Tris-HCl/1 mM EDTA, pH8.0), and the solution was dropped on the DNA chip containing the whole genes of yeast (DNA Chip Research Inc. Japan) so that the cDNAs were hybridized on the DNA chip at 65° C. for over 12 hours. The fluoresces intensity of the DNA chip was read with a scanner, and the ratio relative to the fluorescence intensity resulting from the absence of chemical substance was estimated as the following, which is shown in Tables 1 to 9: [formula]
In the Tables, “Intensity” indicated in the rightmost column is a value of the level of expressed mRNA of each gene in control cells as divided by the average level of the expressions of the whole genes.

## N#Cc1c(Cl)c(Cl)c(Cl)c(C#N)c1Cl [(9), 2,4,5,6-tetrachloro-1,3-benzenedicarbonitrile]
Yeast gene YAR010C
  The level of expressed mRNA in the presence of chemical substance/The level of expressed mRNA in the absence of chemical substance: 1.2
Yeast gene YBL005W-A
  The level of expressed mRNA in the presence of chemical substance/The level of expressed mRNA in the absence of chemical substance: 0.8
Yeast gene YBL041W
  The level of expressed mRNA in the presence of chemical substance/The level of expressed mRNA in the absence of chemical substance: 2.8
Yeast gene YBL043W
  The level of expressed mRNA in the presence of chemical substance/The level of expressed mRNA in the absence of chemical substance: 0.5
Yeast gene YBL078C
  The level of expressed mRNA in the presence of chemical substance/The level of expressed mRNA in the absence of chemical substance: 12.3
Yeast gene YBR214W
  The level of expressed mRNA in the presence of chemical substance/The level of expressed mRNA in the absence of chemical substance: 2.2
Yeast gene YCL020W
  The level of expressed mRNA in the presence of chemical substance/The level of expressed mRNA in the absence of chemical substance: 0.9
Yeast gene YCL027W
  The level of expressed mRNA in the presence of chemical substance/The level of expressed mRNA in the absence of chemical substance: 0.7
Yeast gene YCR004C
  The level of expressed mRNA in the presence of chemical substance/The level of expressed mRNA in the absence of chemical substance: 4.7
Yeast gene YCR071C
  The level of expressed mRNA in the presence of chemical substance/The level of expressed mRNA in the absence of chemical substance: 0.6
Yeast gene YCR088W
  The level of expressed mRNA in the presence of chemical substance/The level of expressed mRNA in the absence of chemical substance: 0.8
Yeast gene YDL008W
  The level of expressed mRNA in the presence of chemical substance/The level of expressed mRNA in the absence of chemical substance: 2.3
Yeast gene YDL238C
  The level of expressed mRNA in the presence of chemical substance/The level of expressed mRNA in the absence of chemical substance: 1.7
Yeast gene YDR055W
  The level of expressed mRNA in the presence of chemical substance/The level of expressed mRNA in the absence of chemical substance: 0.8
Yeast gene YDR084C
  The level of expressed mRNA in the presence of chemical substance/The level of expressed mRNA in the absence of chemical substance: 0.6
Yeast gene YDR085C
  The level of expressed mRNA in the presence of chemical substance/The level of expressed mRNA in the absence of chemical substance: 0.4
Yeast gene YDR104C
  The level of expressed mRNA in the presence of chemical substance/The level of expressed mRNA in the absence of chemical substance: 2.8
Yeast gene YDR115W
  The level of expressed mRNA in the presence of chemical substance/The level of expressed mRNA in the absence of chemical substance: 1.1
Yeast gene YDR259C
  The level of expressed mRNA in the presence of chemical substance/The level of expressed mRNA in the absence of chemical substance: 1.0
Yeast gene YDR315C
  The level of expressed mRNA in the presence of chemical substance/The level of expressed mRNA in the absence of chemical substance: 1.1
Yeast gene YDR358W
  The level of expressed mRNA in the presence of chemical substance/The level of expressed mRNA in the absence of chemical substance: 2.9
Yeast gene YDR388W
  The level of expressed mRNA in the presence of chemical substance/The level of expressed mRNA in the absence of chemical substance: 1.4
Yeast gene YDR432W
  The level of expressed mRNA in the presence of chemical substance/The level of expressed mRNA in the absence of chemical substance: 0.7
Yeast gene YDR481C
  The level of expressed mRNA in the presence of chemical substance/The level of expressed mRNA in the absence of chemical substance: 1.9
Yeast gene YDR510W
  The level of expressed mRNA in the presence of chemical substance/The level of expressed mRNA in the absence of chemical substance: 2.7
Yeast gene YEL042W
  The level of expressed mRNA in the presence of chemical substance/The level of expressed mRNA in the absence of chemical substance: 0.2
Yeast gene YEL066W
  The level of expressed mRNA in the presence of chemical substance/The level of expressed mRNA in the absence of chemical substance: 1.3
Yeast gene YER039C
  The level of expressed mRNA in the presence of chemical substance/The level of expressed mRNA in the absence of chemical substance: 1.2
Yeast gene YER107C
  The level of expressed mRNA in the presence of chemical substance/The level of expressed mRNA in the absence of chemical substance: 0.4
Yeast gene YER130C
  The level of expressed mRNA in the presence of chemical substance/The level of expressed mRNA in the absence of chemical substance: 0.5
Yeast gene YFL028C
  The level of expressed mRNA in the presence of chemical substance/The level of expressed mRNA in the absence of chemical substance: 2.7
Yeast gene YFL043C
  The level of expressed mRNA in the presence of chemical substance/The level of expressed mRNA in the absence of chemical substance: 2.2
Yeast gene YGL229C
  The level of expressed mRNA in the presence of chemical substance/The level of expressed mRNA in the absence of chemical substance: 1.8
Yeast gene YGR136W
  The level of expressed mRNA in the presence of chemical substance/The level of expressed mRNA in the absence of chemical substance: 2.1
Yeast gene YGR189C
  The level of expressed mRNA in the presence of chemical substance/The level of expressed mRNA in the absence of chemical substance: 0.3
Yeast gene YGR213C
  The level of expressed mRNA in the presence of chemical substance/The level of expressed mRNA in the absence of chemical substance: 7.5
Yeast gene YGR257C
  The level of expressed mRNA in the presence of chemical substance/The level of expressed mRNA in the absence of chemical substance: 1.5
Yeast gene YHR004C
  The level of expressed mRNA in the presence of chemical substance/The level of expressed mRNA in the absence of chemical substance: 1.1
Yeast gene YHR071W
  The level of expressed mRNA in the presence of chemical substance/The level of expressed mRNA in the absence of chemical substance: 1.0
Yeast gene YHR139C
  The level of expressed mRNA in the presence of chemical substance/The level of expressed mRNA in the absence of chemical substance: 107.2
Yeast gene YHR142W
  The level of expressed mRNA in the presence of chemical substance/The level of expressed mRNA in the absence of chemical substance: 0.4
Yeast gene YIL123W
  The level of expressed mRNA in the presence of chemical substance/The level of expressed mRNA in the absence of chemical substance: 0.1
Yeast gene YIL140W
  The level of expressed mRNA in the presence of chemical substance/The level of expressed mRNA in the absence of chemical substance: 0.7
Yeast gene YJL073W
  The level of expressed mRNA in the presence of chemical substance/The level of expressed mRNA in the absence of chemical substance: 1.7
Yeast gene YJL089W
  The level of expressed mRNA in the presence of chemical substance/The level of expressed mRNA in the absence of chemical substance: 1.6
Yeast gene YJL116C
  The level of expressed mRNA in the presence of chemical substance/The level of expressed mRNA in the absence of chemical substance: 2.4
Yeast gene YJR004C
  The level of expressed mRNA in the presence of chemical substance/The level of expressed mRNA in the absence of chemical substance: 0.3
Yeast gene YJR086W
  The level of expressed mRNA in the presence of chemical substance/The level of expressed mRNA in the absence of chemical substance: 1.4
Yeast gene YKL008C
  The level of expressed mRNA in the presence of chemical substance/The level of expressed mRNA in the absence of chemical substance: 0.3
Yeast gene YKL013C
  The level of expressed mRNA in the presence of chemical substance/The level of expressed mRNA in the absence of chemical substance: 1.5
